Assay [1] concerns the target T1, BAX R134E R145E (Homo sapiens, UniProt Q07812, R134E/R145E).
T1 construct: Human full-length (1-192) wild-type BAX (Q07812); made in house; host or cells: E. coli BL21 (DE3) CodonPlus (DE3)-RIPL
Description: Liposomal permeabilization assay, double mutant. The class given is biochemical. To be noted: 250 nM BAX and 5 nM tBID; read-out: IC50, inhibition of liposomal release. The protocol:
Lipids (Avanti Polar Lipids) at the following ratio, phosphatidylcholine 48%, phosphatidylinositol 10%, dioleoyl phosphatidylserine 10%, phosphatidylethanolamine, 28%, and tetraoleoyl cardiolipin 4%, were mixed in a total of 1 mg, dried and resuspended in 10 mM HEPES, pH 7, 200 mM KCI, and 5 mM MgCl2 with 12.5 mM 8-aminonaphthalene-1,3,6-trisulfonic acid (ANTS) dye and 45 mM p-xylene-bis-pyridinium bromide (DPX) quencher (Molecular Probes) using a water bath sonicator. Liposomes were formed by extrusion of the suspension using Avanti Mini-Extruder (Cat # 610000) with polycarbonate membranes of 0.1 µm pore size (Avanti Polar Lipids). […] ANTS/DPX release was quantified based on the increase in fluorescence intensity that occurs when the ANTS fluorophore is separated from the DPX quencher upon release from the liposomes into solution. Fluorescence (λex = 355 nm and λem = 520 nm) was measured at 1 minute intervals at room temperature (22-25° C.) indicated using a Tecan Infinite M1000 plate reader. In the case of heat activation, reactions were set up as described in the absence of tBID or BIM, and experiments were recorded at 42° C. The percentage release of ANTS/DPX at any given time point was calculated as percentage release=((F-F0)/(F100-F0))(100), where F0 and F100 are baseline and maximal fluorescence, respectively. […]

Assay [2] deals with BAK-/- mouse embryonic fibroblasts (MEFs). Kind of assay: Caspase 3/7 assay, STS-induced apoptosis, MEFs expressing only BAX. The class given is cell-based. Particulars: 3 µM STS, 6 hr. The text has this: FIGS. 7A, 7B, 7C, 7D, 7E, and 7F are a set of diagrams showing that eltrombopag inhibits BAX translocation and BAX-mediated apoptosis in cells. […] BAX translocation is based on antibody-based detection of BAX and mitochondrial protein TOMM20. Representative confocal micrographs from three independent biological experiments. Scale bar, 20 µm. […] Data represent ±SEM of three independent biological replicates. Two-sided t test, ****P < 0.0001; ***P < 0.001; **P < 0.01; *P < 0.05; ns, P > 0.05. […] Actin and VDAC are loading controls for cytosolic and mitochondrial fractions, respectively. FIGS. 7D and 7E show a caspase 3/7 assay of BAK-/- mouse embryonic fibroblasts (MEFs) (FIG. 7D) and BAX-/-MEFs (FIG. 7E) in response to 3 µM STS and the presence or absence of various doses of EO for 6 hr. […]
It is important to note that THPO-receptor agonist activity of EO is highly specific to the human and chimpanzee THPO-receptors, making mouse cell lines ideal for studying EO modulation of BAX-dependent activity independent of THPO-mediated effects (Erickson-Miller, C. L. et al. Stem Cells 27, 424-430 (2009)). First, mitochondrial cytochrome c release, a hallmark of BAX activation and BAX-dependent apoptosis, was evaluated. […] Next, mitochondrial translocation of cytosolic BAX upon treatment with either BIM BH3 or staurosporine (STS) in BAK KO MEFs was evaluated.

T1 sequence (Q07812 whole entry R134E/R145E): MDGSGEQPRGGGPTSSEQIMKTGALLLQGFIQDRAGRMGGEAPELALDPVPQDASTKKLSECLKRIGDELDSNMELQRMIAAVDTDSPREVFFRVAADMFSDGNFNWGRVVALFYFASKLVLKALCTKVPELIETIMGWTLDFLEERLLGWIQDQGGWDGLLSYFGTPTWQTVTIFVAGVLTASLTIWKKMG

For `CC1=NN(c2ccc(C)c(C)c2)C(=O)/C1=N\Nc1cccc(-c2cccc(C(=O)O)c2)c1O` [EO, eltrombopag], the IC50 in assay [1] was greater than 10 µM. In addition, the “STS-induced apoptosis mediated by caspase 3/7 activity” value in assay [2] is “inhibited STS-induced apoptosis”.
